# Measured values published in paper PMC7689250, “Synthetic Peptide Libraries Designed From a Minimal Alpha-Helical Domain of AS-48-Bacteriocin Homologs Exhibit Potent Antibacterial Activity” (Frontiers in Microbiology, 2020).
# Like-named read-outs stand apart in the source and are kept apart here. Residues, ends and D or L forms follow the SMILES beside them.
# Key:
# sheep erythrocytes = type: cell-based; details: red cells of sheep, 1 h
# Description: To determine if peptide variants were hemolytic, fresh defibrinated whole sheep blood (Hardy Diagnostics) was washed three times in cold PBS, and washed blood was diluted 1:25 in PBS. Treatments were applied at a 1:10 ratio of sample:blood, where the sample was either 10% Triton, PBS, or a specific peptide concentration corresponding to concentrations used in the MIC assays. Treatments were incubated with the blood for 1 h at 37°C. Following incubation, samples were centrifuged at […] for 10 min at 4°C, and the absorbance of the supernatants at 450 nm was measured on the Synergy H1 Microplate Reader to measure the release of hemoglobin. Percent hemolysis was quantified by normalizing to the negative and positive controls.
# E. coli (BL21) = type: cell-based, Escherichia coli
# Summary of the method: (§1)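 MIC in Mueller-Hinton broth with 1 × 10^6 CFU/mL bacteria, overnight cultures grown first in LB (E. coli, P. aeruginosa, S. aureus) or Todd-Hewitt (S. pyogenes); growth read as OD 600. Library members screened at half the parent peptide MIC; MBC as lowest concentration giving no colonies after plating MIC wells, 37°C overnight.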
# S. pyogenes (M1) = type: cell-based, Streptococcus pyogenes; details: for MBC: M1
# Summary of the method: as §1
# P. aeruginosa (PAO1) = type: cell-based, Pseudomonas aeruginosa; details: for MBC: PAO1; for MIC: PAO1, 16 h
# Summary of the method: as §1
# S. aureus (USA300) = type: cell-based, Staphylococcus aureus; details: for MBC: USA300; for MIC: USA300, 16 h
# Summary of the method: as §1
SMILES,"MIC (E. coli (BL21); BL21, 16 h) [µM]","MIC (S. pyogenes (M1); M1, 16 h) [µM]",MIC (P. aeruginosa (PAO1)) [µM],MIC (S. aureus (USA300)) [µM],MIC (E. coli (BL21); E. coli BL21) [µM],MIC (S. pyogenes (M1); S. pyogenes M1) [µM],Percent Hemolysis (sheep erythrocytes) [%],MBC (E. coli (BL21); BL21) [µM],MBC (S. pyogenes (M1)) [µM],MBC (P. aeruginosa (PAO1)) [µM],MBC (S. aureus (USA300)) [µM],MBC (E. coli (BL21); E. coli BL21) [µM]
CC[C@H](C)[C@H](NC(=O)[C@H](CCCCN)NC(=O)[C@H](CCCCN)NC(=O)[C@H](CCCCN)NC(=O)[C@H](CC(C)C)NC(=O)[C@H](CCCNC(=N)N)NC(=O)[C@H](CCC(N)=O)NC(=O)[C@H](Cc1ccccc1)NC(=O)[C@@H](NC(=O)[C@@H](NC(=O)[C@H](CCC(=O)O)NC(=O)[C@H](CCCCN)NC(=O)CNC(=O)[C@H](C)N)[C@@H](C)O)[C@@H](C)CC)C(=O)N[C@@H](CCC(N)=O)C(=O)N[C@@H](CCC(=O)O)C(=O)N[C@@H](CCCCN)C(=O)NCC(=O)N[C@@H](CCCCN)C(=O)N[C@@H](CCCNC(=N)N)C(=O)N[C@@H](C)C(=O)N[C@H](C(=O)N[C@H](C(=O)N[C@@H](Cc1c[nH]c2ccccc12)C(=O)N[C@@H](Cc1c[nH]c2ccccc12)C(=O)O)[C@@H](C)CC)[C@@H](C)O [Syn-larvacin-67] (H-AGKETIFQRLKKKIQEKGKRATIWW-OH; N-terminus and C-terminus assumed),4,0.25,16,64,,,16.3,4,0.25,32,64,
CC[C@H](C)[C@H](NC(=O)[C@H](CCCCN)NC(=O)[C@H](C)NC(=O)[C@H](CCCNC(=N)N)NC(=O)[C@H](CCCCN)NC(=O)CNC(=O)[C@H](CCCCN)NC(=O)[C@H](CCC(=O)O)NC(=O)[C@H](CCC(N)=O)NC(=O)[C@@H](NC(=O)[C@@H](NC(=O)[C@H](CCCCN)NC(=O)[C@H](CCCCN)NC(=O)[C@H](CC(C)C)NC(=O)[C@H](Cc1ccccc1)NC(=O)[C@H](CCC(N)=O)NC(=O)[C@H](CCCNC(=N)N)NC(=O)[C@@H](NC(=O)[C@@H](NC(=O)[C@H](CCC(=O)O)NC(=O)[C@H](CCCCN)NC(=O)CNC(=O)[C@H](C)N)[C@@H](C)O)[C@@H](C)CC)[C@@H](C)O)[C@@H](C)CC)C(=O)N[C@@H](Cc1c[nH]c2ccccc12)C(=O)N[C@@H](Cc1c[nH]c2ccccc12)C(=O)O [Syn-larvacin-69] (H-AGKETIRQFLKKTIQEKGKRAKIWW-OH; N-terminus and C-terminus assumed),2,,32,16,,0.125,12.5,16,0.5,32,16,
CC[C@H](C)[C@H](NC(=O)[C@H](CCCCN)NC(=O)[C@H](CCCCN)NC(=O)CNC(=O)[C@H](CCC(=O)O)NC(=O)[C@H](CC(N)=O)NC(=O)[C@@H](NC(=O)[C@@H](NC(=O)[C@H](CCCCN)NC(=O)[C@H](CCCCN)NC(=O)[C@H](CC(C)C)NC(=O)[C@H](CCCNC(=N)N)NC(=O)[C@H](CC(N)=O)NC(=O)[C@H](Cc1ccccc1)NC(=O)[C@@H](NC(=O)[C@H](CCCCN)NC(=O)[C@H](CCC(=O)O)NC(=O)[C@@H](NC(=O)[C@H](Cc1c[nH]c2ccccc12)NC(=O)[C@H](C)N)[C@@H](C)O)[C@@H](C)CC)[C@@H](C)O)[C@@H](C)CC)C(=O)N[C@@H](C)C(=O)N[C@@H](CCCCN)C(=O)N[C@@H](CCCNC(=N)N)C(=O)N[C@@H](C)C(=O)N[C@@H](Cc1c[nH]c2ccccc12)C(=O)O [Syn-larvacin-40] (H-AWTEKIFNRLKKTINEGKKIAKRAW-OH; N-terminus and C-terminus assumed),2,0.25,16,4,,,17.5,2,4,16,4,
CC[C@H](C)[C@H](NC(=O)[C@H](CCCCN)NC(=O)[C@H](CCCCN)NC(=O)[C@H](CCCCN)NC(=O)[C@H](CC(C)C)NC(=O)[C@H](Cc1ccccc1)NC(=O)[C@H](CCC(N)=O)NC(=O)[C@H](CCCNC(=N)N)NC(=O)[C@@H](NC(=O)[C@@H](NC(=O)[C@H](CCC(=O)O)NC(=O)[C@H](CCCCN)NC(=O)CNC(=O)[C@H](C)N)[C@@H](C)O)[C@@H](C)CC)C(=O)N[C@@H](CCC(N)=O)C(=O)N[C@@H](CCC(=O)O)C(=O)N[C@@H](Cc1c[nH]c2ccccc12)C(=O)N[C@@H](CCCCN)C(=O)N[C@@H](CCCCN)C(=O)N[C@@H](CCCNC(=N)N)C(=O)N[C@@H](C)C(=O)N[C@H](C(=O)N[C@H](C(=O)N[C@@H](C)C(=O)N[C@@H](Cc1c[nH]c2ccccc12)C(=O)O)[C@@H](C)CC)[C@@H](C)O [Syn-larvacin-44] (H-AGKETIRQFLKKKIQEWKKRATIAW-OH; N-terminus and C-terminus assumed),0.5,0.5,16,32,,,20.9,1,0.5,32,32,
CC[C@H](C)[C@H](NC(=O)[C@H](Cc1ccc(O)cc1)NC(=O)[C@H](CCCCN)NC(=O)[C@H](CCCCN)NC(=O)[C@H](CC(C)C)NC(=O)[C@H](CCC(=O)O)NC(=O)[C@H](CCCCN)NC(=O)[C@H](Cc1c[nH]c2ccccc12)NC(=O)[C@@H](NC(=O)[C@H](CCCNC(=N)N)NC(=O)[C@H](CCC(=O)O)NC(=O)[C@H](CO)NC(=O)CNC(=O)[C@H](C)N)[C@@H](C)CC)C(=O)N[C@@H](CCCCN)C(=O)N[C@@H](CCCCN)C(=O)NCC(=O)N[C@@H](CCCCN)C(=O)N[C@@H](CCCCN)C(=O)N[C@H](C(=O)N[C@H](C(=O)N[C@@H](CCCNC(=N)N)C(=O)N[C@@H](C)C(=O)N[C@@H](C)C(=O)N[C@@H](Cc1c[nH]c2ccccc12)C(=O)O)[C@@H](C)CC)C(C)C [Syn-enterocin-24] (H-AGSERIWKELKKYIKKGKKVIRAAW-OH; N-terminus and C-terminus assumed),2,16,8,64,,,10.5,2,16,16,>128,

# More lines, main results first:
"MIC (E. coli (BL21); BL21, 16 h) [µM]","MIC (S. pyogenes (M1); M1, 16 h) [µM]",MIC (P. aeruginosa (PAO1)) [µM],MIC (S. aureus (USA300)) [µM],MIC (E. coli (BL21); E. coli BL21) [µM],MIC (S. pyogenes (M1); S. pyogenes M1) [µM],SMILES,Percent Hemolysis (sheep erythrocytes) [%],MBC (E. coli (BL21); BL21) [µM],MBC (S. pyogenes (M1)) [µM],MBC (P. aeruginosa (PAO1)) [µM],MBC (S. aureus (USA300)) [µM],MBC (E. coli (BL21); E. coli BL21) [µM]
1,2,64,32,,,CC[C@H](C)[C@H](NC(=O)[C@H](Cc1ccccc1)NC(=O)[C@H](C)NC(=O)[C@H](CCCCN)NC(=O)[C@H](CCCCN)NC(=O)[C@H](Cc1c[nH]c2ccccc12)NC(=O)[C@H](CCCNC(=N)N)NC(=O)[C@H](CCCCN)NC(=O)[C@H](CCCNC(=N)N)NC(=O)[C@H](CC(C)C)NC(=O)[C@H](CCC(=O)O)NC(=O)[C@H](CCC(=O)O)NC(=O)[C@H](CC(C)C)NC(=O)[C@H](CC(C)C)NC(=O)[C@H](Cc1ccc(O)cc1)NC(=O)[C@H](CCCCN)NC(=O)[C@@H](NC(=O)[C@H](CC(C)C)NC(=O)[C@H](C)NC(=O)[C@H](CCC(N)=O)NC(=O)[C@H](CCCNC(=N)N)NC(=O)CNC(=O)[C@H](C)N)[C@@H](C)O)C(=O)N[C@@H](C)C(=O)N[C@@H](Cc1c[nH]c2ccccc12)C(=O)O [Syn-xiamencin-20] (H-AGRQALTKYLLEELRKRWKKAFIAW-OH; N-terminus and C-terminus assumed),10.5,1,2,64,32,
,0.5,8,32,0.25,,CC[C@H](C)[C@H](NC(=O)[C@H](CCCNC(=N)N)NC(=O)CNC(=O)[C@@H](NC(=O)[C@H](CCCCN)NC(=O)[C@H](CCCNC(=N)N)NC(=O)[C@@H](NC(=O)[C@H](Cc1ccc(O)cc1)NC(=O)[C@H](CCCNC(=N)N)NC(=O)[C@H](CCCNC(=N)N)NC(=O)[C@H](CC(C)C)NC(=O)[C@H](CCC(=O)O)NC(=O)[C@H](CCCCN)NC(=O)[C@H](C)NC(=O)[C@@H](NC(=O)[C@H](CCCNC(=N)N)NC(=O)[C@H](CC(N)=O)NC(=O)[C@@H](NC(=O)[C@H](CCCCN)NC(=O)[C@H](C)N)[C@@H](C)O)[C@@H](C)CC)[C@@H](C)CC)C(C)C)C(=O)N[C@@H](C)C(=O)N[C@@H](CCCNC(=N)N)C(=O)N[C@@H](CCCCN)C(=O)N[C@@H](C)C(=O)N[C@@H](Cc1c[nH]c2ccccc12)C(=O)O [Syn-sordellicin-96] (H-AKTNRIAKELRRYIRKVGRIARKAW-OH; N-terminus and C-terminus assumed),14.6,,0.5,16,32,0.25
2,4,16,8,,,CC[C@H](C)[C@H](NC(=O)[C@H](CCCCN)NC(=O)CNC(=O)[C@H](Cc1ccccc1)NC(=O)[C@H](CCCCN)NC(=O)[C@H](CCCNC(=N)N)NC(=O)[C@H](CC(C)C)NC(=O)[C@H](Cc1ccc(O)cc1)NC(=O)[C@H](CCC(=O)O)NC(=O)[C@H](CC(C)C)NC(=O)[C@H](CC(C)C)NC(=O)[C@H](CCC(=O)O)NC(=O)[C@H](CCCCN)NC(=O)[C@@H](NC(=O)[C@H](CC(C)C)NC(=O)[C@H](CCCNC(=N)N)NC(=O)[C@H](CC(N)=O)NC(=O)[C@H](C)NC(=O)[C@H](CCCCN)NC(=O)[C@H](C)N)[C@@H](C)O)C(=O)N[C@@H](C)C(=O)N[C@@H](CCCNC(=N)N)C(=O)N[C@@H](CCCCN)C(=O)N[C@@H](C)C(=O)N[C@@H](Cc1c[nH]c2ccccc12)C(=O)O [Syn-xiamencin-96] (H-AKANRLTKELLEYLRKFGKIARKAW-OH; N-terminus and C-terminus assumed),20.0,2,4,16,8,
